Key:
[1] = molecular target: GABARAPL2 (Homo sapiens, UniProt P60520); test: biochemical
[2] = molecular target: LC3; parameters: method as in Dong et al.; conditions: higher protein and compound concentrations; ref Dong et al.; read-out: Kd (ITC); cited from earlier work
[3] = test system: live cells of the growth assay; test: Analysis of images of the live cell growth assay (cell morphology); type: cell-based; conditions: consistent with G2/M arrest
Protocol: Using RPE1 and U2OS cells, cell growth was monitored in live cells over a time course of 72 h after treatment with the respective compounds.
Cell growth assay: Cell confluence (phase) from RPE1 (hTERT RPE-1, ATCC CLR_4000) or U2OS (ATCC, HTB-96) cell lines were monitored over time with the IncuCyte S3 (Sartiorius, Germany) in 384-well plates in 50 ul DMEM media, supplemented with 10% Fetal Bovine Serum (FBS) 1% penicillin/Streptomycin and incubated 24 h before treatment. […] Cell confluence is represented as % of area covered by cells. Each data point represents the average ratio or confluence obtained from three individual wells of the plate.

Sequence of GABARAPL2 (P60520 whole entry): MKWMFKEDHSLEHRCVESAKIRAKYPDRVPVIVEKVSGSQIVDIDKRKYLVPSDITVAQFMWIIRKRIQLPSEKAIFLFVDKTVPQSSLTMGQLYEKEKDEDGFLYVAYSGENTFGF

For `O=C1Nc2ccc(I)cc2C1=Cc1cc(Br)c(O)c(Br)c1` [compound 4], which Kd [1] is on record?
The Kd was 15 to 30 µM.

What does the source list for `Cc1ccc(C(=O)N(CCCN)[C@@H](c2nc3cc(Cl)ccc3c(=O)n2Cc2ccccc2)C(C)C)cc1` [compound 3, (R)-N-(3-aminopropyl)-N-(1-(3-benzyl-7-chloro-4-oxo-3,4-dihydroquinazolin-2-yl)−2-methylpropyl)−4-methylbenzamide]?
Kd [2]: ~12 µM; cell morphology in live cell images [3]: increased number of rounded cells
